Results reported in patent US20070128217A1 (priority 2003, published 2007).

Key:
[1] = tested on: rabbit serum obtained by immunizing a rabbit with the SARS-CoV strain Frankfurt 1; format: binding; parameters: Binding of a rabbit serum to linear peptides / Binding of a rabbit serum to looped peptides / Rabbit serum linear peptides / Rabbit serum looped peptides / Binding of a rabbit serum to linear peptides of protein N of SARS-CoV Urbani (Rabbit serum linear peptides) / Binding of a rabbit serum to looped/cyclic peptides of protein N of SARS-CoV Urbani (Rabbit serum looped peptides): unit not given here
[2] = tested on: antibodies in sera from SARS patients (sera 1a, 1b, 2, 6, 37, 62, London, SARS-yellow, SARS-green); format: binding, human; parameters: Binding of serum 6 to linear peptides of protein X1 of SARS-CoV Urbani / Binding of serum 37 to linear peptides of protein X1 of SARS-CoV Urbani / Binding of serum 6 to looped/cyclic peptide (PEPSCAN-ELISA) / Binding of serum 37 to looped/cyclic peptide (PEPSCAN-ELISA) / Binding of serum 37 to looped/cyclic peptides of protein X1 of SARS-CoV Urbani / Binding of serum 6 to linear peptides of protein X2 / Binding of serum 37 to linear peptides of protein X2 / Binding of serum 37 to looped/cyclic peptides of protein X2 of SARS-CoV Urbani / Binding of serum 6 to linear peptides of protein M of SARS-CoV Urbani / Binding of serum 37 to linear peptides of protein M of SARS-CoV Urbani / Binding of serum 6 to looped/cyclic peptides of protein M of SARS-CoV Urbani / Binding of serum 37 to looped/cyclic peptides of protein M of SARS-CoV Urbani / Binding of serum 6 to linear peptides of protein X3 of SARS-CoV Urbani / Binding of serum 37 to linear peptides of protein X3 of SARS-CoV Urbani / Binding of serum 37 to looped/cyclic peptides of protein X3 of SARS-CoV Urbani / Binding of serum 6 to linear peptides of protein X4 of SARS-CoV Urbani / Binding of serum 37 to linear peptides of protein X4 of SARS-CoV Urbani / Binding of serum 37 to looped/cyclic peptides of protein X4 of SARS-CoV Urbani / Binding of serum 6 to linear peptides of protein X5 of SARS-CoV Urbani / Binding of serum 37 to linear peptides of protein X5 of SARS-CoV Urbani / Binding of serum 37 to looped/cyclic peptides of protein X5 of SARS-CoV Urbani / Binding of serum 6 to linear peptides of protein N of SARS-CoV Urbani / Binding of serum 37 to linear peptides of protein N of SARS-CoV Urbani / Binding of serum 6 to linear peptide (PEPSCAN-ELISA) / Binding of serum 1a to looped/cyclic peptides of protein N of SARS-CoV Urbani / Binding of serum 1b to looped/cyclic peptides of protein N of SARS-CoV Urbani / Binding of serum 2 to looped/cyclic peptides of protein N of SARS-CoV Urbani / Binding of serum 6 to looped/cyclic peptides of protein N of SARS-CoV Urbani / Binding of serum 37 to looped/cyclic peptides of protein N of SARS-CoV Urbani / Binding of serum 62 to looped/cyclic peptides of protein N of SARS-CoV Urbani / Binding of serum London to looped/cyclic peptides of protein N of SARS-CoV Urbani / Binding of serum SARS-green to looped/cyclic peptides of protein N of SARS-CoV Urbani: unit not given here
[3] = tested on: control sera (pooled serum of ten healthy LUMC hospital workers; commercial negative donor pooled serum from the Dutch bloodbank); format: binding, human; parameters: Binding of Control serum LUMC to linear peptides / Binding of Control serum Blood-bank to linear peptides / Binding of Control serum LUMC to looped peptides / Binding of Control Serum Blood-Bank to Looped peptides / Binding of Control serum LUMC to linear peptides of the protein M of SARS-CoV Urbani / Binding of Control serum Blood-bank to linear peptides of the protein M of SARS-CoV Urbani / Binding of Control serum LUMC to looped peptides of the protein M of SARS-CoV Urbani / Binding of Control Serum Blood-Bank to Looped peptides of the protein M of SARS-CoV Urbani: unit not given here

LVLKMLHSSSLTSLL
0.4: Binding of a rabbit serum to looped peptides [1] | Binding of serum 1b to linear peptides of protein X2 [2] | Binding of serum 6 to looped/cyclic peptides of protein X2 of SARS-CoV Urbani [2] | Binding of serum 37 to linear peptides of protein X2 [2] | Binding of serum 37 to looped/cyclic peptides of protein X2 of SARS-CoV Urbani [2] | Binding of serum SARS-yellow to linear peptides of protein X2 [2] | Binding of serum SARS-yellow to looped/cyclic peptides of protein X2 of SARS-CoV Urbani [2]
0.7: Binding of Control Serum Blood-Bank to Looped peptides [3]
0.3: Binding of a rabbit serum to linear peptides [1] | Binding of serum 2 to linear peptides of protein X2 [2] | Binding of serum 2 to looped/cyclic peptides of protein X2 of SARS-CoV Urbani [2] | Binding of serum 6 to linear peptides of protein X2 [2] | Binding of serum London to linear peptides of protein X2 [2] | Binding of serum SARS-green to looped/cyclic peptides of protein X2 of SARS-CoV Urbani [2]
0.6: Binding of serum 1a to linear peptides of protein X2 [2] | Binding of serum 1a to looped/cyclic peptides of protein X2 of SARS-CoV Urbani [2] | Binding of serum 62 to looped/cyclic peptides of protein X2 of SARS-CoV Urbani [2] | Binding of Control serum LUMC to looped peptides [3]
0.5: Binding of serum 1b to looped/cyclic peptides of protein X2 of SARS-CoV Urbani [2] | Binding of serum 62 to linear peptides of protein X2 [2] | Binding of serum SARS-green to linear peptides of protein X2 [2] | Binding of Control serum Blood-bank to linear peptides [3]
0.2: Binding of serum London to looped/cyclic peptides of protein X2 of SARS-CoV Urbani [2] | Binding of Control serum LUMC to linear peptides [3]

SVTDTIVVTEGDGIS
0.2: Binding of serum 1b to looped/cyclic peptides of protein X1 of SARS-CoV Urbani [2] | Binding of serum London to linear peptides of protein X1 of SARS-CoV Urbani [2] | Binding of serum SARS-green to looped/cyclic peptides of protein X1 of SARS-CoV Urbani [2] | Binding of serum SARS-yellow to looped/cyclic peptides of protein X1 of SARS-CoV Urbani [2]
0.3: Binding of serum 1a to looped/cyclic peptides of protein X1 of SARS-CoV Urbani [2] | Binding of serum 37 to looped/cyclic peptides of protein X1 of SARS-CoV Urbani [2] | Binding of serum 62 to looped/cyclic peptides of protein X1 of SARS-CoV Urbani [2] | Binding of Control Serum Blood-Bank to Looped peptides [3] | Binding of Control serum LUMC to looped peptides [3]
0.1: Binding of a rabbit serum to linear peptides [1] | Binding of serum 2 to looped/cyclic peptides of protein X1 of SARS-CoV Urbani [2] | Binding of serum 6 to looped/cyclic peptides of protein X1 of SARS-CoV Urbani [2] | Binding of serum London to looped/cyclic peptides of protein X1 of SARS-CoV Urbani [2] | Binding of serum SARS-green to linear peptides of protein X1 of SARS-CoV Urbani [2]
0.6: Binding of serum 1a to linear peptides of protein X1 of SARS-CoV Urbani [2]
0.4: Binding of a rabbit serum to looped peptides [1] | Binding of serum 2 to linear peptides of protein X1 of SARS-CoV Urbani [2] | Binding of serum 6 to linear peptides of protein X1 of SARS-CoV Urbani [2] | Binding of serum SARS-yellow to linear peptides of protein X1 of SARS-CoV Urbani [2] | Binding of Control serum Blood-bank to linear peptides [3] | Binding of Control serum LUMC to linear peptides [3]
0.5: Binding of serum 1b to linear peptides of protein X1 of SARS-CoV Urbani [2] | Binding of serum 37 to linear peptides of protein X1 of SARS-CoV Urbani [2] | Binding of serum 62 to linear peptides of protein X1 of SARS-CoV Urbani [2]

LKQLLEQWNLVIGFL
0.5: Binding of serum 1b to linear peptides of protein M of SARS-CoV Urbani [2] | Binding of serum 37 to looped/cyclic peptides of protein M of SARS-CoV Urbani [2]
0.3: Binding of Control serum LUMC to linear peptides of the protein M of SARS-CoV Urbani [3]
0.1: Rabbit serum looped peptides [1] | Binding of serum SARS-yellow to linear peptides of protein M of SARS-CoV Urbani [2]
1.0: Binding of serum London to linear peptides of protein M of SARS-CoV Urbani [2]
0.8: Binding of serum 6 to looped/cyclic peptides of protein M of SARS-CoV Urbani [2]
0.2: Rabbit serum linear peptides [1] | Binding of serum London to looped/cyclic peptides of protein M of SARS-CoV Urbani [2] | Binding of serum SARS-green to linear peptides of protein M of SARS-CoV Urbani [2]
0.6: Binding of serum 1a to looped/cyclic peptides of protein M of SARS-CoV Urbani [2] | Binding of serum 1b to looped/cyclic peptides of protein M of SARS-CoV Urbani [2] | Binding of serum 2 to linear peptides of protein M of SARS-CoV Urbani [2]
0.7: Binding of serum 1a to linear peptides of protein M of SARS-CoV Urbani [2] | Binding of serum 6 to linear peptides of protein M of SARS-CoV Urbani [2] | Binding of serum 37 to linear peptides of protein M of SARS-CoV Urbani [2] | Binding of serum 62 to linear peptides of protein M of SARS-CoV Urbani [2] | Binding of serum 62 to looped/cyclic peptides of protein M of SARS-CoV Urbani [2] | Binding of serum SARS-yellow to looped/cyclic peptides of protein M of SARS-CoV Urbani [2] | Binding of Control Serum Blood-Bank to Looped peptides of the protein M of SARS-CoV Urbani [3] | Binding of Control serum Blood-bank to linear peptides of the protein M of SARS-CoV Urbani [3] | Binding of Control serum LUMC to looped peptides of the protein M of SARS-CoV Urbani [3]
0.4: Binding of serum 2 to looped/cyclic peptides of protein M of SARS-CoV Urbani [2] | Binding of serum SARS-green to looped/cyclic peptides of protein M of SARS-CoV Urbani [2]
